Patent publication US8329705B2, “Substituted triazolo-pyrazine compounds” (ArQule, Inc., priority 2009, dated 2012)

The compounds below were run against T1, FGFR2 (N549H) (Homo sapiens, UniProt P21802, N549H) (assay: FGFR2 kinase activity assay (fluorescent ELISA)). Settings: 30 μM compound.
T1 construct: purchased Millipore 14-742
Type: biochemical
Protocol: A fluorescent ELISA assay was developed to identify and characterize inhibitors of FGFR2 kinase. This heterogeneous assay utilized a biotinylated peptide with a tyrosine motif as a substrate and an anti-phospho-tyrosine antibody to measure phosphorylation of the substrate. The reaction was initiated by adding a test compound, 37 uM Pyk2 substrate (Midwest Biotech, cat. #MBT2383), 12.5 uM ATP (Roche, cat. #11 140 965 001), and 0.5 uM FGFR2 enzyme (Millipore, cat. #14-742) sequentially to a non-binding polypropylene V-well plate. All reagents were in assay buffer consisting of: 50 mM Tris-HCL, 0.02 mg/mL BSA, 10 mM MgCl2, 0.1 mM Na3VO4, 1 mM EGTA, […], 0.01% NP-40, 2 mM DTT, 10% Glycerol. The reaction was incubated for 60 minutes. As the reaction proceeded, FGFR2 phosphorylated tyrosines in the peptide. The reaction mixture was then moved to a blocked streptavidin coated Nunc Maxisorb plate (coated with 100 ng streptavidin from Pierce (cat #15-124) per well) allowing for the capture of the biotinylated peptide. Peptide was captured for 30 minutes at room temperature, the phosphorylation of peptide continues during this phase. The reaction was stopped by washing the Streptavidin plate 6 times with TBST. Phosphorylated peptide was detected by adding anti-phospho tyrosine antibody (purchased from Cell Signaling, cat. #9411, diluted 1:3000), unbound antibody was removed by washing 6 times with TBST. Secondary detection was performed using Alkaline Phosphatase tagged goat anti-mouse antibody (purchased from Pierce, cat. #31320, diluted 1:4000) for one hour. Unbound secondary antibody was removed by washing 6 times with TBST.
The fluorescent readout was initiated by the addition of Promega Attophos substrate (purchased from Promega; Kit catalog number: S1000, dilution=6 mg/10 mL), which when dephosphorylated by Alkaline phosphatase emitted a fluorescent signal of […] when excited by a signal […]. This reading was done on the Perkin Elmer Envision system. […] The signal was directly proportional to the activity of FGFR2 and compound inhibition of FGFR2 was monitored by a decrease in signal.

T1 sequence (P21802 22-821 N549H): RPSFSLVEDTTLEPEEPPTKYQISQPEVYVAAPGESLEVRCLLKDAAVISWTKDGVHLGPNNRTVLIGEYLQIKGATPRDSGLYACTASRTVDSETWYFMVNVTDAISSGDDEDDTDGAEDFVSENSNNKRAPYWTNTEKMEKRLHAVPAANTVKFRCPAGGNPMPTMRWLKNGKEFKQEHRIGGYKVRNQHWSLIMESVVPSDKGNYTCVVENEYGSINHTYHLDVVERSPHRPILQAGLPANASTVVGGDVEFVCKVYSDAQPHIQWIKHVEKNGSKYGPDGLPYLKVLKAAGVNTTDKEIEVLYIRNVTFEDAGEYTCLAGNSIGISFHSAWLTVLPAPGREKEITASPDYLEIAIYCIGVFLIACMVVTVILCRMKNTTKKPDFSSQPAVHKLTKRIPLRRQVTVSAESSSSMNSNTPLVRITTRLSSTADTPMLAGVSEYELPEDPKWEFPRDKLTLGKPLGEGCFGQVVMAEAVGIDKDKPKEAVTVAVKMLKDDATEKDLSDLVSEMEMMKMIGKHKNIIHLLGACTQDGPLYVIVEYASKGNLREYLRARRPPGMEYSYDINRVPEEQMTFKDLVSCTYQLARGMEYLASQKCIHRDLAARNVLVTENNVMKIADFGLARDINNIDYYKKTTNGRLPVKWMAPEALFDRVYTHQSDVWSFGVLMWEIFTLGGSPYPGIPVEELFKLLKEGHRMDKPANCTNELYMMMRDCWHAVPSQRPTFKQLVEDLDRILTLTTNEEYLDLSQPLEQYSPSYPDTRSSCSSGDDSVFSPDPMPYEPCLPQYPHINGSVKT

inhibition at 30 µM [%]	SMILES
55.5	COc1ccc(Cl)cc1Nc1nccn2c(NC(=O)OC(C)C)nnc12 [Compound 7, isopropyl {8-[(5-chloro-2-methoxyphenyl)amino][1,2,4]triazolo[4,3-a]pyrazin-3-yl}carbamate]
50.5	CC(C)OC(=O)Nc1nnc2c(Nc3ccccc3Cl)nccn12 [Compound 13, isopropyl {8-[(2-chlorophenyl)amino][1,2,4]triazolo[4,3-a]pyrazin-3-yl}carbamate]
82	Cc1ccccc1Nc1nccn2c(NC(=O)OC(C)C)nnc12 [Compound 14, isopropyl {8-[(2-methylphenyl)amino][1,2,4]triazolo[4,3-a]pyrazin-3-yl}carbamate]
68.8	CC(C)OC(=O)Nc1nnc2c(NCc3ccc(C(F)(F)F)cc3)nccn12 [Compound 17, isopropyl (8-{[4-(trifluoromethyl)benzyl]amino}[1,2,4]triazolo[4,3-a]pyrazin-3-yl)carbamate]
55.2	Cc1cccc(CNc2nccn3c(NC(=O)OC(C)C)nnc23)c1 [Compound 19, isopropyl {8-[(3-methylbenzyl)amino][1,2,4]triazolo[4,3-a]pyrazin-3-yl}carbamate]
50.9	COc1ccc(C)cc1Nc1nccn2c(NC(=O)OC(C)C)nnc12 [Compound 23, isopropyl {8-[(2-methoxy-5-methylphenyl)amino][1,2,4]triazolo[4,3-a]pyrazin-3-yl}carbamate]
65.3	CC(C)OC(=O)Nc1nnc2c(NCc3cccc(Cl)c3)nccn12 [Compound 24, isopropyl {8-[(3-chlorobenzyl)amino][1,2,4]triazolo[4,3-a]pyrazin-3-yl}carbamate]
51.6	CC(C)OC(=O)Nc1nnc2c(NCCc3ccc(F)cc3)nccn12 [Compound 28, isopropyl (8-{[2-(4-fluorophenyl)ethyl]amino}[1,2,4]triazolo[4,3-a]pyrazin-3-yl)carbamate]
56.3	CC(C)OC(=O)Nc1nnc2c(N(C)Cc3ccccc3)nccn12 [Compound 30, isopropyl {8-[benzyl(methyl)amino][1,2,4]triazolo[4,3-a]pyrazin-3-yl}carbamate]
96.5	COc1cc(CCNc2nccn3c(NC(=O)OC(C)C)nnc23)cc(OC)c1 [Compound 31, isopropyl (8-{[2-(3,5-dimethoxyphenyl)ethyl]amino}[1,2,4]triazolo[4,3-a]pyrazin-3-yl)carbamate]
68.7	CC(C)OC(=O)Nc1nnc2c(Nc3ccc4c(c3)CCC4)nccn12 [Compound 34, isopropyl [8-(2,3-dihydro-1H-inden-5-ylamino)[1,2,4]triazolo[4,3-a]pyrazin-3-yl]carbamate]
57	COc1ccc(Nc2nccn3c(NC(=O)OC(C)C)nnc23)c(OC)c1 [Compound 35, isopropyl {8-[(2,4-dimethoxyphenyl)amino][1,2,4]triazolo[4,3-a]pyrazin-3-yl}carbamate]
51.4	CC(C)OC(=O)Nc1nnc2c(NCCc3ccc(Oc4ccccc4)cc3)nccn12 [Compound 36, isopropyl (8-{[2-(4-phenoxyphenyl)ethyl]amino}[1,2,4]triazolo[4,3-a]pyrazin-3-yl)carbamate]
62.5	COc1ccccc1N(C)c1nccn2c(NC(=O)OC(C)C)nnc12 [Compound 41, isopropyl {8-[(2-methoxyphenyl)(methyl)amino][1,2,4]triazolo[4,3-a]pyrazin-3-yl}carbamate]
58.7	Cc1cccc(CCNc2nccn3c(NC(=O)OC(C)C)nnc23)c1 [Compound 42, isopropyl (8-{[2-(3-methylphenyl)ethyl]amino}[1,2,4]triazolo[4,3-a]pyrazin-3-yl)carbamate]
84.6	COc1ccc(OC)c(Nc2nccn3c(NC(=O)OC(C)C)nnc23)c1 [Compound 46, isopropyl {8-[(2,5-dimethoxyphenyl)amino][1,2,4]triazolo[4,3-a]pyrazin-3-yl}carbamate]
87	CC(C)OC(=O)Nc1nnc2c(NCc3ccccc3C(F)(F)F)nccn12 [Compound 48, isopropyl (8-{[2-(trifluoromethyl)benzyl]amino}[1,2,4]triazolo[4,3-a]pyrazin-3-yl)carbamate]
63.6	CC(C)OC(=O)Nc1nnc2c(Nc3ccc(C(C)(C)C)cc3)nccn12 [Compound 50, isopropyl {8-[(4-tert-butylphenyl)amino][1,2,4]triazolo[4,3-a]pyrazin-3-yl}carbamate]
64.7	CC(C)OC(=O)Nc1nnc2c(Nc3nc4ccccc4[nH]3)nccn12 [Compound 56, isopropyl [8-(1H-benzimidazol-2-ylamino)[1,2,4]triazolo[4,3-a]pyrazin-3-yl]carbamate]

inhibition at 30 µM [%]	SMILES
100	CC(C)OC(=O)Nc1nnc2c(NCc3ccc(-c4ccccc4)cc3)nccn12 [Compound 61, isopropyl {8-[(biphenyl-4-ylmethyl)amino][1,2,4]triazolo[4,3-a]pyrazin-3-yl}carbamate]
58.4	CC(C)OC(=O)Nc1nnc2c(NCc3cc(C(F)(F)F)cc(C(F)(F)F)c3)nccn12 [Compound 66, isopropyl (8-{[3,5-bis(trifluoromethyl)benzyl]amino}[1,2,4]triazolo[4,3-a]pyrazin-3-yl)carbamate]
119	CC(C)OC(=O)Nc1nnc2c(Nc3cccc(Cl)c3)nccn12 [Compound 67, isopropyl {8-[(3-chlorophenyl)amino][1,2,4]triazolo[4,3-a]pyrazin-3-yl}carbamate]
52.8	Cc1ccc(N(C)c2nccn3c(NC(=O)OC(C)C)nnc23)cc1 [Compound 69, isopropyl {8-[methyl(4-methylphenyl)amino][1,2,4]triazolo[4,3-a]pyrazin-3-yl}carbamate]
51	CC(C)OC(=O)Nc1nnc2c(NCc3ccccc3Br)nccn12 [Compound 80, isopropyl {8-[(2-bromobenzyl)amino][1,2,4]triazolo[4,3-a]pyrazin-3-yl}carbamate]
84	CC(C)OC(=O)Nc1nnc2c(NCc3ccccc3F)nccn12 [Compound 84, isopropyl {8-[(2-fluorobenzyl)amino][1,2,4]triazolo[4,3-a]pyrazin-3-yl}carbamate]
50.6	Cc1cccc2c(CCNc3nccn4c(NC(=O)OC(C)C)nnc34)c[nH]c12 [Compound 85, isopropyl (8-{[2-(7-methyl-1H-indol-3-yl)ethyl]amino}[1,2,4]triazolo[4,3-a]pyrazin-3-yl)carbamate]
57.7	CC(C)OC(=O)Nc1nnc2c(N(C)c3ccc(Cl)cc3)nccn12 [Compound 87, isopropyl {8-[(4-chlorophenyl)(methyl)amino][1,2,4]triazolo[4,3-a]pyrazin-3-yl}carbamate]
59.2	Nc1nnc2c(NCc3ccccc3Br)nccn12 [Compound 92, N^8-(2-bromobenzyl)[1,2,4]triazolo[4,3-a]pyrazine-3,8-diamine]
60.7	Nc1nnc2c(Nc3cccc(F)c3)nccn12 [Compound 99, N^8-(3-fluorophenyl)[1,2,4]triazolo[4,3-a]pyrazine-3,8-diamine]
66.5	Nc1nnc2c(NCc3ccc(C(F)(F)F)cc3)nccn12 [Compound 100, N^8-[4-(trifluoromethyl)benzyl][1,2,4]triazolo[4,3-a]pyrazine-3,8-diamine]
86.1	Cc1ccc(N(C)c2nccn3c(N)nnc23)cc1 [Compound 107, N^8-methyl-N^8-(4-methylphenyl)[1,2,4]triazolo[4,3-a]pyrazine-3,8-diamine]
50	CN(C)c1ccc(Nc2nccn3c(N)nnc23)cc1 [Compound 116, N^8-[4-(dimethylamino)phenyl][1,2,4]triazolo[4,3-a]pyrazine-3,8-diamine]
50.4	Cc1cccc(Nc2nccn3c(N)nnc23)c1 [Compound 118, N^8-(3-methylphenyl)[1,2,4]triazolo[4,3-a]pyrazine-3,8-diamine]
65.7	Nc1nnc2c(Nc3ccccc3F)nccn12 [Compound 121, N^8-(2-fluorophenyl)[1,2,4]triazolo[4,3-a]pyrazine-3,8-diamine]
73.5	COc1ccc(C)cc1Nc1nccn2c(N)nnc12 [Compound 124, N^8-(2-methoxy-5-methylphenyl)[1,2,4]triazolo[4,3-a]pyrazine-3,8-diamine]
65.7	Cc1cccc(CNc2nccn3c(N)nnc23)c1C [Compound 131, N^8-(2,3-dimethylbenzyl)[1,2,4]triazolo[4,3-a]pyrazine-3,8-diamine]
96.3	CCc1ccc(CNc2nccn3c(N)nnc23)cc1 [Compound 139, N^8-(4-ethylbenzyl)[1,2,4]triazolo[4,3-a]pyrazine-3,8-diamine]
